Key:
[1] = target: T1, collagen solution (KOKEN ATELOCOLLAGEN IMPLANT) (Bos taurus, UniProt P02453+P02465); test: Influence of sucrose, glucose and glucuronic acid on gelation of collagen solution (Reference Example 7); assay type: physicochemical; details: sugar 0.01 M, collagen 3% [w/v], pH 7.4, 37° C., absorbance at 400 nm
T1 construct: atelocollagen obtained by treatment with a protease such as pepsin; purchased KOKEN CO., LTD; KOKEN ATELOCOLLAGEN IMPLANT
Protocol: The following sugars were used as sugars to be added, and an ability of the sugar to suppress the gelation of a collagen solution was confirmed by measuring a fibrillogenesis time.
Monosaccharides: Glucose and Glucuronic Acid
(§1) Each of various sugar solutions was added to a collagen solution (pH 7.4, final concentration: 3% [w/v]) (KOKEN ATELOCOLLAGEN IMPLANT [KOKEN CO., LTD.]) so that the final concentration was 0.01 M, followed by mixing. The mixed solution was measured for its time-dependent change in absorbance at 400 nm with a spectrophotometer while being heated at 37° C.

[2] = target: T2, collagen solution (KAI, pH 7, PB buffer) (Bos taurus, UniProt P02453+P02465); test: Influence of various sugars on gelation (fibrillogenesis time) of 3% collagen solution (Reference Example 3(1)); assay type: physicochemical; details: collagen 3% [w/v]; sugar 0.05 to 0.5 M (monosaccharide), 0.05 to 0.25 M (disaccharide), 0.05 M raffinose, 0.05, 0.125 M stachyose; without degassing
T2 construct: atelocollagen obtained by treatment with a protease such as pepsin; KAI
T2 sequence (P02453 178-1191 limits assumed): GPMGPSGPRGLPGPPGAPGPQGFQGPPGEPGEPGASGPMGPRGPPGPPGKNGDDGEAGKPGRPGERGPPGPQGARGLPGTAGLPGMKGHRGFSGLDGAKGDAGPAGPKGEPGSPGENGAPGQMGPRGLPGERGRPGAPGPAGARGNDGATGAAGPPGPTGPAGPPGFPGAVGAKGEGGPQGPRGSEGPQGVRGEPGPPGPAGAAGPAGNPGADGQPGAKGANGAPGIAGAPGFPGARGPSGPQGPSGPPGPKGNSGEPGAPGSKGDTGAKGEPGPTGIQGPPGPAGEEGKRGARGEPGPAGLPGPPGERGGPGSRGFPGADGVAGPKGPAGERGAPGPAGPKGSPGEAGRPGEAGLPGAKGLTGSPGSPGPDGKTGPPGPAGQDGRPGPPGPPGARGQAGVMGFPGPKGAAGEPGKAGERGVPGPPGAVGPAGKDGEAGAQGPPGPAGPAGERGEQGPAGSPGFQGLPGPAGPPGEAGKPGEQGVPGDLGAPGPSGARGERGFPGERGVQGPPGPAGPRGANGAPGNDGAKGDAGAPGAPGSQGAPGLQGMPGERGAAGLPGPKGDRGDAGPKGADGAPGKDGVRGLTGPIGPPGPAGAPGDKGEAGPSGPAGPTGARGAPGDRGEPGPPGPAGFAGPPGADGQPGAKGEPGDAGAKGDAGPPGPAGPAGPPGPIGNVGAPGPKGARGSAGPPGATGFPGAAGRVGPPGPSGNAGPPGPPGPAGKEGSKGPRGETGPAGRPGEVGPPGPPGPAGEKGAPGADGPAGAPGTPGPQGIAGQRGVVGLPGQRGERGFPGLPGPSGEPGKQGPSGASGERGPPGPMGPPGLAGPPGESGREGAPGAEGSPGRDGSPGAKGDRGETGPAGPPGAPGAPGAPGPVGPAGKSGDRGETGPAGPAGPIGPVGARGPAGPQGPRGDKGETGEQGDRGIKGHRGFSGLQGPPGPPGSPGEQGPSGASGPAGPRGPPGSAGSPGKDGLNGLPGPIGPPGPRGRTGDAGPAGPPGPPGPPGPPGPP
T2 sequence (P02465 80-1117 limits assumed): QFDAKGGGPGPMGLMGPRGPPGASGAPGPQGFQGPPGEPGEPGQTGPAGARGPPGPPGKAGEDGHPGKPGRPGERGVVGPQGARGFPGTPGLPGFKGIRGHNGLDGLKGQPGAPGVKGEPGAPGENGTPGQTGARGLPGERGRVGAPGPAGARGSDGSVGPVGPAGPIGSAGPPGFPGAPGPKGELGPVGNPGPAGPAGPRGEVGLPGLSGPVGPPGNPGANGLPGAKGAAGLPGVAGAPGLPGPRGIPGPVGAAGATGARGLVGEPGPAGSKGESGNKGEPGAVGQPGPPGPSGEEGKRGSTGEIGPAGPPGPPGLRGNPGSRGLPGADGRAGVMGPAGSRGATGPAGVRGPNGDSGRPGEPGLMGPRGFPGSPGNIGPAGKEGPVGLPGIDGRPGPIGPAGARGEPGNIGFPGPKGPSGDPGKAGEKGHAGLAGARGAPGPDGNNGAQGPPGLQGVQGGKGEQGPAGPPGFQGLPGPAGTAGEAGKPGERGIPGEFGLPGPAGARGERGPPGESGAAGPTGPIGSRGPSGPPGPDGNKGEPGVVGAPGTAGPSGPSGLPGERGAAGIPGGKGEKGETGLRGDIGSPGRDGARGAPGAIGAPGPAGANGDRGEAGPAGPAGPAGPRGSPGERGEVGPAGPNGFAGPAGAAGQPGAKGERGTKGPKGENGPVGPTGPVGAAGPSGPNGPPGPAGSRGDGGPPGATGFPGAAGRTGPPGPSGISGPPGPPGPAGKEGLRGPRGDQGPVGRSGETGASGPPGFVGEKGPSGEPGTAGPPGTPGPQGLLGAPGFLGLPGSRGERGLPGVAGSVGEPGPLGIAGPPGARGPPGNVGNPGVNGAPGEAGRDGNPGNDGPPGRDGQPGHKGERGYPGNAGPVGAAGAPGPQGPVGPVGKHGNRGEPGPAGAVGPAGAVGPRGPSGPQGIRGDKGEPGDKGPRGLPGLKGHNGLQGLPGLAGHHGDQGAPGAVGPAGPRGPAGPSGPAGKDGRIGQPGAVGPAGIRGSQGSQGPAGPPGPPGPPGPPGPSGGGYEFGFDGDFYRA
Protocol: • (1) The kind and concentration of a sugar to be added were changed, and an ability of the sugar to suppress the gelation of a collagen solution was confirmed by measuring a fibrillogenesis time.
The collagen was prepared so that the final concentration was 3% [w/v]. KAI (pH 7, PB buffer) was used as the collagen. The kinds and final concentrations of the used sugars are as described below. • (i) Monosaccharide: Glucose or Fructose
0.05, 0.125, 0.25, 0.5 M • (ii) Disaccharide: sucrose or maltose
0.05, 0.125, 0.25 M • (iii) Trisaccharide: raffinose
0.05 M • (iv) Tetrasaccharide: stachyose
It should be noted that, in this reference example, measurements were carried out without degassing.

KS collagen solution = test: Influence of tetrasaccharide on gelation of 0.4% collagen solution (Reference Example 3(2)); assay type: physicochemical; details: collagen 0.4% [w/v], pH 7; 0.05 M stachyose
Source text: (2) The influence of a tetrasaccharide on a gelation ability was confirmed in the same manner as in the above-mentioned method (1) except that: the concentration of the collagen was changed to 0.4% [w/v]; and KS collagen (pH 3) adjusted to pH 7 with a neutralization liquid (7% [w/v] Na2HPO4, 0.9% [w/v] NaCl) was used as the collagen solution. 0.05 M stachyose was used as the tetrasaccharide in the same manner as in the method (1).

[3] = target: T2, collagen solution (KAI, pH 7, PB buffer); test: Influence of maltotetraose and maltopentaose on gelation of collagen solution (Reference Example 4); assay type: physicochemical; details: collagen 3% [w/v]; sugar 0.05, 0.125 M
Protocol: The kind and concentration of a sugar to be added were changed, and an ability of the sugar to suppress the gelation of a collagen solution was confirmed by measuring a fibrillogenesis time.
The collagen was prepared so that the final concentration was 3% [w/v]. KAI (pH 7, PB buffer) was used as the collagen. The kinds and final concentrations of the used sugars are as described below. • (i) Tetrasaccharide: maltotetraose
0.05, 0.125 M • (ii) Pentasaccharide: maltopentaose

[4] = In vivo drug sustained-release ability of thyroglobulin formulation (Example 11); details: thyroglobulin (669 kDa) with atelocollagen 3% [w/v], sucrose 0.25 M; 100 μL subcutaneous in mice; afterwards low sustained-release rate
Source text: The sustained-release amount of thyroglobulin was quantitatively measured by HPLC in a time-dependent manner.
3.5% [w/v] atelocollagen Lot. I-175, Kasai Lac, 2.5 M sucrose, and a 100-mg protein solution were mixed at a blending ratio of 8:1:1. First, syringes filled with atelocollagen and sucrose were connected in series on ice, followed by thorough mixing by reciprocation 50 times. The mixed liquid was mixed with the protein solution by syringe reciprocation 50 times immediately before subcutaneous injection into mice.
The mice were purchased from Japan SLC, Inc. ICR strain female mice were purchased at 7-week-old 1 week before use and used at 8-week old. The collagen mixed liquid was injected into three sites in an amount of 100 μL per site (n=3). Each of samples after 0, minutes, 30 minutes, 45 minutes, 1 hour, 3 hours, 6 hours, and 12 hours was extirpated and heated to 80° C. in an Eppendorf tube so as to denature the collagen into a solution form. Each of the samples was analyzed through use of Agilent HPLC and an SEC-4 gel filtration column to quantify the concentration of the protein in the gel. In the HPLC, thyroglobulin is eluted at 5.927 minutes.

[5] = target: T1, collagen solution (KOKEN ATELOCOLLAGEN IMPLANT); test: Spectroscopic evaluation of influence of sugar on gelation ability of collagen solution (Reference Example 1); assay type: physicochemical; details: sucrose 0.01 or 0.25 M in collagen 3% [w/v], pH 7.4, 37° C., absorbance at 400 nm
Protocol: as §1, with “Specifically, a sucrose solution” for “Each of various sugar solutions”, “(product name: KOKEN” for “(KOKEN”, “IMPLANT)” for “IMPLANT [KOKEN CO., LTD.])”, “0, 0.01, or 0.25” for “0.01”

Type I atelocollagen = test: Spectroscopic evaluation of influence of sugar on gelation of various collagen solutions (Reference Example 2); assay type: physicochemical, bovine, porcine; details: 0.25 M sucrose, 1×PBS, 37° C., absorbance at 400 nm, 3 hours
Protocol: (§2) The influences of a sugar on the gelation abilities (fibrillogenic abilities) of various collagen solutions were investigated.
First, various collagens were each diluted to 0.2% [w/v] with 1 mM HCl. The various collagens used were as follows. • Type I atelocollagen (3.5% KAI: bovine, Lot. 1-107, pH 7) • Type I atelocollagen (3% KAI: porcine, stock of the laboratory, pH 7) • Type II atelocollagen (CL-22, Lot. 622052, pH 3) • Type III atelocollagen (NIP, 0.3% PSC-3-100-20, Lot. BSP310G001, 5 mM acetic acid) • Type I native collagen (1% 1-AC, Lot. 6002173, pH 3) • Shark atelocollagen (produced in the laboratory, powder, stored at −30° C.) […]
(§3) 100 μl of each of the prepared samples were added to a 96-well microplate and measured for its time-dependent change in absorbance at 400 nm (measurement interval: 30 seconds, measurement time: 3 hours) with an optical absorption microplate reader (TECAN, SUNRISE Thermo RC-R) while heated at 37° C. An average of the measured values (n=3) at the respective times was calculated.

Shark atelocollagen = test: as above; assay type: physicochemical; details: 0.25 M sucrose, 1×PBS, 37° C., absorbance at 400 nm, 3 hours
Protocol: as §2
(§4) First, various collagens were each diluted to 0.2% [w/v] with 1 mM HCl. The various collagens used were as follows. • Type I atelocollagen (3.5% KAI: bovine, Lot. 1-107, pH 7) • Type I atelocollagen (3% KAI: porcine, stock of the laboratory, pH 7) • Type II atelocollagen (CL-22, Lot. 622052, pH 3) • Type III atelocollagen (NIP, 0.3% PSC-3-100-20, Lot. BSP310G001, 5 mM acetic acid) • Type I native collagen (1% 1-AC, Lot. 6002173, pH 3) • Shark atelocollagen (produced in the laboratory, powder, stored at −30° C.)
(§5) Distilled water (OTSUKA DISTILLED WATER, Cat. 1324, Lot. 0J90N), 2.5 M sucrose (Wako Pure Chemical Industries, Ltd., Cat. 196-00015, Lot. CKM1674), 100 mg/mL lysozyme (Tokyo Chemical Industry Co., Ltd., Cat. L072), and 10×PBS (DULBECCO′PBS, Dainippon Sumitomo Pharma Co., Ltd., Cat. 28-103-05 FN, Lot. 896458) were added to each of the various collagen solutions at 0.2% [w/v] to prepare a solution having final concentrations of 0.2% [w/v] collagen/0.25 M sucrose/10 mg/mL lysozyme/1×PBS. At this time, the ingredients were added so that the collagen, distilled water, sucrose, lysozyme, and PBS were mixed in this order.
as §3

Type III atelocollagen = target: T3, Type III atelocollagen (Bos taurus, UniProt P04258); test: as above; assay type: physicochemical; details: 0.25 M sucrose, 1×PBS, 37° C., absorbance at 400 nm, 3 hours
T3 construct: atelocollagen obtained by treatment with a protease such as pepsin; purchased NIP PSC-3-100-20, Lot; BSP310G001
T3 sequence (P04258 15-1040 limits assumed): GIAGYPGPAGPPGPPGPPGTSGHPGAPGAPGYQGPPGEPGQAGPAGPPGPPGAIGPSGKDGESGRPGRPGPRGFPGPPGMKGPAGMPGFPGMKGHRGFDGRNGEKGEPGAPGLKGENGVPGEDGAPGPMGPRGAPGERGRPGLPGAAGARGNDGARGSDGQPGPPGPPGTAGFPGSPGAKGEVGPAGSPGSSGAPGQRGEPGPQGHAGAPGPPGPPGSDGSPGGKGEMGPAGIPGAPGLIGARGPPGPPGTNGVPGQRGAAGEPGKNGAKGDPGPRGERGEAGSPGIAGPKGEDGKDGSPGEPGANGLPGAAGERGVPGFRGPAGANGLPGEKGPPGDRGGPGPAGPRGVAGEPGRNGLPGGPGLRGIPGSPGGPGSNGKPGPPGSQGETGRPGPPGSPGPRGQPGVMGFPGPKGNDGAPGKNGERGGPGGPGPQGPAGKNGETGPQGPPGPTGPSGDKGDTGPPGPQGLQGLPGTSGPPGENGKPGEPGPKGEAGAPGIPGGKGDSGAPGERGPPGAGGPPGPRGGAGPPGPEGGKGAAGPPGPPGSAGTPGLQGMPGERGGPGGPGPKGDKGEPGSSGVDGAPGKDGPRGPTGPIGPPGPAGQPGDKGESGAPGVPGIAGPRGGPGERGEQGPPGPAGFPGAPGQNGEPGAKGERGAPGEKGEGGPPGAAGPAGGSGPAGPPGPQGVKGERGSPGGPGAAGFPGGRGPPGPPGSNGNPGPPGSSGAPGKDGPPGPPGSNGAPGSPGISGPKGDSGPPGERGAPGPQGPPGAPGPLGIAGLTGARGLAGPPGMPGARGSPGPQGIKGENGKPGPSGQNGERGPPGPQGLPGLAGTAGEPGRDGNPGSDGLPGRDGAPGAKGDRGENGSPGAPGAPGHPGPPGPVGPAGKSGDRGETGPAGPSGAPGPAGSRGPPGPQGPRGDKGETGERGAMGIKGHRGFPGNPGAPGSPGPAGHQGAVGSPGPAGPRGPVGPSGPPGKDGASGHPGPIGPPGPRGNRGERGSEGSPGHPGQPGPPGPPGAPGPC
Protocol: as §2, §4, §5, §3

Type II atelocollagen = target: T4, Type II atelocollagen (Bos taurus, UniProt P02459); test: as above; assay type: physicochemical; details: 0.25 M sucrose, 1×PBS, 37° C., absorbance at 400 nm, 3 hours
T4 construct: atelocollagen obtained by treatment with a protease such as pepsin; purchased CL-22, Lot; 622052
T4 sequence (P02459 201-1214 limits assumed): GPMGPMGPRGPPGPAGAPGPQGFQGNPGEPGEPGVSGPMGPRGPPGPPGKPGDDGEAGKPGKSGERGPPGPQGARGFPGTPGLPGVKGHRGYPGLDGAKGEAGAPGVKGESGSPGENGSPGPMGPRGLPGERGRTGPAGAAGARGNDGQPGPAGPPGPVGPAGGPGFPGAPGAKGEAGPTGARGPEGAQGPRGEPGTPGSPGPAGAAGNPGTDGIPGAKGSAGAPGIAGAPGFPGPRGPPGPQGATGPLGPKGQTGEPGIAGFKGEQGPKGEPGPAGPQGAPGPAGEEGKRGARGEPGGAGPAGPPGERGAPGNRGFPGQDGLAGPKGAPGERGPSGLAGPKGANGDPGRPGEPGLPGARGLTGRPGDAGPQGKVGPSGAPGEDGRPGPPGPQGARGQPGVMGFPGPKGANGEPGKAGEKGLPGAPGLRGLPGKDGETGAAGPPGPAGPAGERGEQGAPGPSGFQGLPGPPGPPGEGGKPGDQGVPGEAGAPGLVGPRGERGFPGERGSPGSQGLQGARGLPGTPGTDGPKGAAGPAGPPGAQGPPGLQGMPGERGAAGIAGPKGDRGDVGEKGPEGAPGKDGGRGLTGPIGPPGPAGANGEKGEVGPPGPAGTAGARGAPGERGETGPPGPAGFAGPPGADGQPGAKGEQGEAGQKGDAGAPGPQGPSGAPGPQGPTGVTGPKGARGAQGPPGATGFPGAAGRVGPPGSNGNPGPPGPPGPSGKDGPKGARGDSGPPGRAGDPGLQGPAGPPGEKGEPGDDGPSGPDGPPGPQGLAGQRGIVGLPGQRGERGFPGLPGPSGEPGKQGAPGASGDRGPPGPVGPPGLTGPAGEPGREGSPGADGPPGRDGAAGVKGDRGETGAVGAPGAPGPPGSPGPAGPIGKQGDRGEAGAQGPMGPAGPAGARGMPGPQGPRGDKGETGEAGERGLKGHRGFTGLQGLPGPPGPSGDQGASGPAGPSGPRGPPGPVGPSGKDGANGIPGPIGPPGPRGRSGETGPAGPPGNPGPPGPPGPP
Protocol: as §2, §4, §5, §3

Type I native collagen = target: T5, Type I native collagen (Bos taurus, UniProt P02453+P02465); test: as above; assay type: physicochemical; details: 0.25 M sucrose, 1×PBS, 37° C., absorbance at 400 nm, 3 hours
T5 construct: Type I native collagen (1% 1-AC, Lot. 6002173, pH 3); purchased 1-AC, Lot; 6002173
T5 sequence (P02465 80-1117): as the sequence (P02465 80-1117 limits assumed) above
T5 sequence (P02453 162-1217): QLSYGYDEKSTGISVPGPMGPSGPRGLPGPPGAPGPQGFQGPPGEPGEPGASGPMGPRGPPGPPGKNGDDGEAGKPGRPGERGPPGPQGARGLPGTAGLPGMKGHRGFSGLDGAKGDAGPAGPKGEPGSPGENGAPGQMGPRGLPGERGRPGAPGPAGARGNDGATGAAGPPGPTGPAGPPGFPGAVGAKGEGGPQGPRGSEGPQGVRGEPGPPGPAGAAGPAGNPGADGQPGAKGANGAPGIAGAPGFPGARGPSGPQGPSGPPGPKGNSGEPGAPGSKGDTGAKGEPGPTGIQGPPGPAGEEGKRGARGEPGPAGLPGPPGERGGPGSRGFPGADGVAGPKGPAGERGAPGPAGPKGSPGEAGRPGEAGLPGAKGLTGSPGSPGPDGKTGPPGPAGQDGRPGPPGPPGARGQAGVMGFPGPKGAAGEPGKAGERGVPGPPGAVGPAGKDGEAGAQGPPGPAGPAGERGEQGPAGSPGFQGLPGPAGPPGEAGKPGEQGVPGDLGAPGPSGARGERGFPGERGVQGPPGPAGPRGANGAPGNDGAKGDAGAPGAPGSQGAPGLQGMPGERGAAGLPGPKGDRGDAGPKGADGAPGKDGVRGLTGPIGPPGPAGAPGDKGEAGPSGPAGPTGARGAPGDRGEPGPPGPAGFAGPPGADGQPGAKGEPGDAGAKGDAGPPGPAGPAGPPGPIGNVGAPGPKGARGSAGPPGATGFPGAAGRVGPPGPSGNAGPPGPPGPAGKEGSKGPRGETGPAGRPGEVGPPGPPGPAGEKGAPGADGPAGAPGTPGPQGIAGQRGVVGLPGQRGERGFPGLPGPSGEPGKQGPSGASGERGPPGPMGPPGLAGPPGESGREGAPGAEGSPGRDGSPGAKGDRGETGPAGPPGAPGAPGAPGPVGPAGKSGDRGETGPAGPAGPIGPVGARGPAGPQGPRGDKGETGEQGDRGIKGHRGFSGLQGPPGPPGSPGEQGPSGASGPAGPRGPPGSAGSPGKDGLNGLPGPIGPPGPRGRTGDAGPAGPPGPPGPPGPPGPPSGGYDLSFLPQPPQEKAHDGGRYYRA
Protocol: as §2, §4, §5, §3

T1 sequence (P02453 178-1191 limits assumed): as the sequence (P02453 178-1191 limits assumed) above
T1 sequence (P02465 80-1117 limits assumed): as the sequence (P02465 80-1117 limits assumed) above

O=C[C@H](O)[C@@H](O)[C@H](O)[C@H](O)C(=O)O [glucuronic acid]
gelation suppressing effect [1]: low gelation suppressing effect as compared to glucose

OC[C@H]1O[C@H](OC[C@H]2O[C@H](OC[C@H]3O[C@H](O[C@]4(CO)O[C@H](CO)[C@@H](O)[C@@H]4O)[C@H](O)[C@@H](O)[C@@H]3O)[C@H](O)[C@@H](O)[C@H]2O)[C@H](O)[C@@H](O)[C@H]1O [stachyose]
suppression of gelation of collagen (fibrillogenesis time) [2]: hardly confirmed
fibrillogenesis time of the collagen solution (KS collagen solution): delayed

OC[C@H]1O[C@H](O[C@H]2[C@H](O)[C@@H](O)[C@@H](O[C@H]3[C@H](O)[C@@H](O)[C@@H](O[C@H]4[C@H](O)[C@@H](O)C(O)O[C@@H]4CO)O[C@@H]3CO)O[C@@H]2CO)[C@H](O)[C@@H](O)[C@@H]1O (some centres unmarked) [Maltotetraose, maltotetraose]
fibrillogenesis suppressing effect (fibrillogenesis time) [3]: comparable to that of the monosaccharide

OC[C@H]1O[C@H](O[C@H]2[C@H](O)[C@@H](O)C(O)O[C@@H]2CO)[C@H](O)[C@@H](O)[C@@H]1O (mixture of isomers) [maltose]
suppression of gelation of collagen (fibrillogenesis time) [2]: suppressed in a concentration-dependent manner

maltopentaose
fibrillogenesis suppressing effect (fibrillogenesis time) [3]: substantially no delay

thyrogloblin: high molecular weight protein (669 kDa) used as drug in sucrose/atelocollagen formulation
period of fast release after the injection [4]: ≤ 3 h

O=C(CO)[C@@H](O)[C@H](O)[C@H](O)CO [fructose]
suppression of gelation of collagen (fibrillogenesis time) [2]: suppressed in a concentration-dependent manner

OC[C@H]1O[C@@](CO)(O[C@H]2O[C@H](CO)[C@@H](O)[C@H](O)[C@H]2O)[C@@H](O)[C@@H]1O [sucrose]
influence on gelation of collagen solution [5]: delayed in a sucrose concentration-dependent manner
suppression of gelation of collagen (fibrillogenesis time) [2]: suppressed in a concentration-dependent manner
gelation suppressing effect [1]: high gelation suppressing effect
influence on gelation of collagen solution (Type I atelocollagen): suppressed gelation
influence on gelation of collagen solution (Shark atelocollagen): suppressed gelation
influence on gelation of collagen solution (Type III atelocollagen): suppressed gelation
influence on gelation of collagen solution (Type II atelocollagen): suppressed gelation
influence on gelation of collagen solution (Type I native collagen): suppressed gelation

OC[C@H]1O[C@H](OC[C@H]2O[C@H](O[C@]3(CO)O[C@H](CO)[C@@H](O)[C@@H]3O)[C@H](O)[C@@H](O)[C@@H]2O)[C@H](O)[C@@H](O)[C@H]1O [raffinose]
suppression of gelation of collagen (fibrillogenesis time) [2]: delayed as compared to the case of adding no sugar
